{
  "source": "patent US20210346354A1",
  "about": "“MACROPINOCYTOSIS IN CANCER” (Memorial Sloan-Kettering Cancer Center, priority 2015, published 2021)",
  "key": {"[1]": {"test_system": "K-Ras mutant tumor cell lines (KRPC, MiaPaCa-2, A549)", "experiment": "Proliferation of K-Ras mutant tumor cell lines", "type": "cell-based", "details": "250 nM torin 1", "method": "Dashed lines indicate starting cell numbers. P-values were calculated using a two-tailed unpaired t-test. ***p<0.001. […] Under experimental conditions, cells have abundant glucose supplied in their medium and are thus unlikely to utilize leucine for lipid as opposed to protein synthesis during anabolic growth. Consistent with this, when cells were labeled with ^14C-leucine, the ratio of protein to lipid incorporation of label was: control cells 364±69, torin-1 treated cells 203±27, raptor-deficient cells 87±3. Data are represented as mean±STDEV (n=3).\nCell culture experiments were performed at 37° C. and 5% CO2 in DMEM/F12 with 10% dialyzed FBS (molecular weight cut-off 10,000; Gemini Biosystems), 100 U/mL penicillin, 100 μg/mL streptomycin, 5 mM glucose and 2 mM glutamine. For proliferation assays, MEFs were plated in complete medium, 5 h later briefly rinsed and then cultured in starvation medium as indicated. For EAA titration experiments, EAAs were supplemented at indicated percentages of 1×MEM amino acid solution (M5550, Sigma). Cancer cell lines were cultured in complete medium for 1 day prior to starvation. Numbers of adherent cells, which are >95% viable as assessed by Trypan Blue exclusion were determined using a Multisizer 4 Coulter Counter (Beckman). […]"}, "[2]": {"test_system": "Ulk1/2 wild type and DKO MEFs expressing K-Ras^G12V", "experiment": "DQ-BSA proteolysis in Ulk1/2 wild type and DKO MEFs expressing K-Ras^G12V", "type": "cell-based, mouse", "details": "250 nM torin 1; Ulk1/2 wild type versus DKO", "method": "K-Ras^G12D MEFs were pre-treated for 1 h with 250 nM torin 1 and then incubated with fluorescently labeled dextran or albumin. Intracellular dextran or albumin was quantified after 30 min uptake. Data are represented as mean±STDEV (n=6 fields of view with >10 cells each). P-values were calculated using a two-tailed unpaired t-test. n.s. not significant. […] Uptake of fluorescently labeled dextran was quantified after 30 min uptake. Data are represented as mean±STDEV (n=8 fields of view with >10 cells each). P-values were calculated using a two-tailed unpaired t-test. n.s. not significant. […] K-Ras^G12D MEFs were pre-treated for 1 h with 250 nM torin 1, then incubated with fluorescently labeled dextran for indicated periods of time. Data are represented as mean±STDEV (n=8 fields of view with >10 cells each). […] Mean fluorescence intensity per cell was determined after 6 h of DQ-BSA uptake. Data are represented as mean±STDEV (n=7 fields of view with >15 cells each). P-values were calculated using a two-tailed unpaired t-test. ***p<0.001, n.s. not significant. […] DQ-BSA fluorescence intensity is represented as mean±STDEV (n=7 fields of view with >20 cells each). P-values were calculated using a two-tailed unpaired t-test. ***p<0.001. […] DQ-BSA fluorescence intensity is represented as mean±STDEV (n=6 fields of view with >30 cells each). P-values were calculated using a two-tailed unpaired t-test. […]"}, "mTORC1": {"test_system": "mTORC1", "experiment": "mTORC1 re-activation after 1 h EAA starvation, Western blotting against phosphorylated S6K1", "type": "cell-based, mouse", "details": "wild type and K-Ras^G12D MEFs; EAA-free medium with 1-3% albumin; 500 nM torin 1 added at onset of EAA starvation", "method": "Cells were rinsed with ice-cold PBS and detached from culture plates by incubation with ice-cold trypsin (0.05%). Trypsin was inactivated with ice-cold serum, cells pelleted and rinsed with ice cold PBS. Cells were lysed in ice-cold lysis buffer [50 mM HEPES, pH 7.4, 40 mM […], 2 mM EDTA, 1 mM Na Orthovandanate, 50 mM NaF, 10 mM Na Pyrophosphate, 10 mM Na Glycerophosphate, 1% Triton X-100, 1×Halt protease and phosphatase inhibitor cocktails (Thermo Scientific)] for 15 min, and soluble lysate fractions isolated by centrifugation at 16,000 g for 10 min. Protein concentrations were determined with the Pierce BCA Protein Assay (Thermo Scientific) and equal amounts of proteins analyzed by SDS gel electrophoresis and Western blotting following standard protocols.\nCell culture experiments were performed at 37° C. and 5% CO2 in DMEM/F12 with 10% dialyzed FBS (molecular weight cut-off 10,000; Gemini Biosystems), 100 U/mL penicillin, 100 μg/mL streptomycin, 5 mM glucose and 2 mM glutamine. For proliferation assays, MEFs were plated in complete medium, 5 h later briefly rinsed and then cultured in starvation medium as indicated. For EAA titration experiments, EAAs were supplemented at indicated percentages of 1×MEM amino acid solution (M5550, Sigma). Cancer cell lines were cultured in complete medium for 1 day prior to starvation. Numbers of adherent cells, which are >95% viable as assessed by Trypan Blue exclusion were determined using a Multisizer 4 Coulter Counter (Beckman). For mTOR activation and localization experiments, cells were rinsed and then incubated in EAA starvation medium (DMEM/F12 lacking all amino acids except glutamine) for 1 h, and subsequently placed in medium supplemented with EAAs (1×MEM amino acid solution), albumin (3%, if not stated otherwise) or fresh EAA-free starvation medium for indicated periods of time.\nCells can sense EAAs through the mTORC1 pathway, which integrates amino acid levels with inputs from growth factor signaling to promote cell growth (Ma and Blenis, 2009; Shimobayashi and Hall, 2014). When cells are placed in EAA-free medium, the ability of mTORC1 to phosphorylate downstream targets is repressed. To test if catabolism of extracellularly provided proteins could restore mTORC1 activity in the absence of EAAs, mTORC1 was inactivated by subjecting MEFs to 1 h EAA starvation. Fresh medium containing EAAs or different concentrations of albumin was then added and mTORC1 re-activation assessed by Western blotting against phosphorylated S6K1."}, "K-Ras^G12D MEFs": {"test_system": "K-Ras^G12D MEFs", "experiment": "Lysosomal degradation of DQ-BSA (fluorescence dequenching) in K-Ras^G12D MEFs", "type": "cell-based, mouse", "method": "For live imaging, medium was supplemented with 0.3 mg/ml DQ Green BSA. 1 h prior to imaging, 50 nM LysoTracker Red and 0.2 μg/ml Hoechst were added. Cells were imaged either immediately after addition of DQ-BSA and torin 1, or after 5-6 h incubation using a Zeiss LSM 5 LIVE.\nTo characterize how cells derive leucine from extracellular proteins, cellular albumin uptake was investigated using constitutively fluorescent albumin and intracellular albumin proteolysis using a self-quenched albumin that emits fluorescence upon degradation (DQ-BSA) (Reis et al., 1998). […] It was then determined whether lysosomal albumin degradation was required to support growth during leucine starvation. […] Ras GTPases can promote cellular uptake of macromolecules through macropinocytosis (Bar-Sagi and Feramisco, 1986). […] To investigate whether this endocytic pathway contributed to albumin-dependent growth, cells were treated with the Na^+/H^+ exchange inhibitor EIPA, which blocks macropinocytosis but not other endocytic pathways (West et al., 1989).\nTo distinguish these possibilities, it was first tested whether mTORC1 inhibition increased internalization of extracellular macromolecules. […] It was next examined whether mTORC1 inhibition affected lysosomal degradation of internalized proteins."}},
  "data": [
    {"smiles": "CCC(=O)N1CCN(c2ccc(-n3c(=O)ccc4cnc5ccc(-c6cnc7ccccc7c6)cc5c43)cc2C(F)(F)F)CC1", "note": "[torin 1]", "values": [
      {"measurement": "cell proliferation", "setting": "[1]; leucine-containing medium +3% albumin, day 3", "value": "strongly decreased their proliferation"},
      {"measurement": "cell proliferation", "setting": "[1]; leucine-free medium +3% albumin, day 4", "value": "induced several carcinoma cell lines harboring activating Ras mutations to proliferate"},
      {"measurement": "DQ-BSA proteolysis in response to torin 1", "setting": "[2]", "value": "comparable increase in DQ-BSA proteolysis"},
      {"measurement": "albumin-induced S6K1 phosphorylation", "setting": "mTORC1", "value": "completely suppressed"},
      {"measurement": "DQ-BSA proteolysis, torin 1 combined with constitutive K-Ras activation", "setting": "K-Ras^G12D MEFs; 250 nM torin 1, 6 h DQ-BSA uptake, versus either manipulation alone", "value": "almost four times more than either manipulation alone"},
      {"measurement": "fluorescence dequenching of DQ-BSA", "setting": "K-Ras^G12D MEFs; 250 nM torin 1, followed over time", "value": "dramatic increase"},
      {"measurement": "rate of DQ-BSA degradation after torin 1 pre-treatment", "setting": "K-Ras^G12D MEFs; pre-treating with 250 nM torin 1 for 6 h or 16 h", "value": "did not increase the rate of DQ-BSA degradation"}
    ]}
  ]
}
